For data set [1], the system named is regional myocardial ischemia and reperfusion (LAD occlusion). The experiment in a line: Infarct size in a rat model of regional myocardial ischemia and reperfusion. The class given is in vivo. The settings on record: iv. The protocol:
Seventy two male Wistar rats (215-300 g, Charles River, Margate, U.K.) were anaesthetized with thiopentone sodium (Intraval®, 120 mg/kg i.p.; Rhone-Merrieux, Essex, U.K.). The rats were tracheotomised and ventilated with a Harvard ventilator (70 strokes/min, tidal volume: 8-10 ml/kg, inspiratory oxygen concentration: 30%). Body temperature was maintained at 38±1° C. The right carotid artery was cannulated and connected to a pressure transducer (MLT 844, AD Instruments Ltd, Hastings, UK) to monitor mean arterial blood pressure and heart rate, which were continuously recorded on a data acquisition system (Powerlab® Version 4.0.4, AD Instruments, Hastings, UK) installed on a Dell Dimension 4100 personal computer, throughout the experiment. The right jugular vein was cannulated for the administration of test compound and Evans Blue dye (at the end of the experiment). A parasternal thoracotomy was performed, the heart was suspended in a temporary pericardial cradle and a snare occluder was placed around the left anterior descending coronary artery (LAD). After completion of the surgical procedure the animals were allowed to stabilize for 30 min before LAD ligation. The coronary artery was occluded at time 0 by tightening of the occluder. After 25 min of acute myocardial ischemia, the occluder was released to allow reperfusion for 2 h.
The test compounds were administered as a slow intravenous injection (i.v.) 5 min prior to the onset of reperfusion of the ischemic heart. Following the 2 h reperfusion period, the coronary artery was re-occluded and Evans Blue dye (1 ml of 2% w/v) was injected into the left ventricle, via the right jugular vein cannula, to distinguish between perfused and non-perfused (AAR) sections of the heart. The Evans Blue solution stains the perfused myocardium, while the occluded vascular bed remains uncolored. The animals were sacrificed with an overdose of anesthetic and the heart excised. The heart was sectioned into slices of 3-4 mm thick, the right ventricular wall was removed, and the AAR (pink) was separated from the non-ischemic (blue) area. […]

For the next data set, the system named is MCAO rats. The experiment in a line: Middle cerebral artery occlusion (MCAO) cerebral ischemia lesions in rats. The class given is in vivo, rat. An excerpt:
The same effects of preventing the ischemia-reperfusion damages with aporphine and oxoaporphine compounds also found in the other organs, such as brain. After Compound 16 or Compound 21, which is a compound of Formula B (where R1, R2, R5, R6 are OMe, R3, R4, R7 are H) was administrated to male Sprague Dawley rats, the effects of test compounds on the artery occlusive cerebral ischemia in the rats were monitored. First, permanent brain ischemia was induced by middle cerebral artery occlusion (MCAO) in the rats. At 0, 6, 24, 48, and 54 hours after the formation of middle cerebral artery occlusion (MCAO), Group I (i.e., the control group) animals were given the solvent (100% DMSO) (1 ml/kg, i.p.); Group II (i.e., the control group) animals were given the distilled water (D.W.) (1 ml/kg, i.p.);Group III animals (NCM-121) were given Compound 16 (1.5 mg/kg, i.p.); Group IV animals (NCM-124) were given Compound 21 (1.7 mg/kg, i.p); Group V animals were given MK-801 (0.3 mg/kg, i.p.), an antagonist of the N-methyl-D-aspartic acid (NMDA) receptor. There were ten rats in each group. Four days after the formation of MCAO, all the rats were sacrificed. Brain sections were made and stained with 2% cresol purple. The areas and volumes of cerebral ischemia lesions in each section were recorded.

Data set [2] concerns Langendorff perfused rat hearts. Description: Coronary flow in Langendorff perfused rat hearts. The settings on record: FIG. 3. How it is done: Adult male Wistar rats weighing 275-325 g, were intraperitoneally anesthetized with sodium pentobarbital (50 mg·kg^−1) and given heparin (300 Ukg·kg^−1) by the same route. Hearts were rapidly excised and immersed in 37° C. perfusion medium. The aorta was cannulated and retrograde-perfused at 80 mmHg with Tyrode's solution containing 120 mM NaCl, 25 mM NaHCO3, 3 mM KCl, 1.2 mM NaH2PO4, 2.5 mM CaCl2, 1.2 mM MgCl2, and […] 5.5 mM glucose. The perfusate was equilibrated with 95% O2, 5% CO2 at 37° C. Perfusion pressure was monitored using a MLT844/D pressure transducer (Capto, Horten, Norway) connected to a PowerLab (ADInstruments, Castle Hill, Australia). The coronary effluent was collected for the measurement of coronary flow.

Data set [3] relates to ischemia-reperfusion rabbit. The experiment in a line: Ischemia-reperfusion rabbit mortality. The data set is classed as in vivo.
Data set [4] in a line: Safety at multiples of the effective dose in rabbits. The settings on record: 10-100 times the effective dose.

Marks after values point to notes of the source that are not given here.

Consider `COc1cc2c(cc1OC)-c1c(OC)c(OC)cc3c1C(C2)N(CCOc1ccccc1OC)CC3` (stereo not shown) [Compound 16, N-[2-(2-methoxyphenoxyl)]ethylnorglaucine], for which the infarct size in data set [1] (0.5 mg/kg) is 47±4 % of the area at risk; in data set [1] (1.5 mg/kg) it was 47±2 % of the area at risk. Also, the “Infarcted Volume (X ± SEM mm^3)” value in the data set on MCAO rats (IP 1.5 mg/kg × 6, N=10, four days after MCAO, vehicle 100% DMSO 154.17 ± 16.69) is recorded as 60.14 ± 24.49* mm^3. For the same molecule, in the data set on MCAO rats (IP 1.5 mg/kg × 6, vs Group I vehicle (100% DMSO)), the “% Decrease in total volume of ischemic lesions” value is recorded as 60.99%. In addition, the “effects in reducing the areas and volumes of cerebral ischemia lesions as compared with MK-801” value in the data set on MCAO rats (comparison in words) is listed as “more significant effects”. The coronary blood flow entry in data set [2] is recorded as “increasing coronary blood flow”. Further, the “Died at ischemia period” value in data set [3] (0.25 mg/kg, total 3, control 0 of 10) was 0; in data set [3] (2.5 mg/kg, total 6, control 0 of 10), 0. The “Died at reperfusion period” value was 1 in data set [3] (0.25 mg/kg, total 3, control 3 of 10) and 0 in data set [3] (2.5 mg/kg, total 6, control 3 of 10). Moreover, the “Mortality (%)” value in data set [3] (0.25 mg/kg, total 3, control 30) was 33.3%; in data set [3] (2.5 mg/kg, total 6, control 30), 0%. For the same molecule, the animal deaths result in data set [4] is “no animals died”.

The record behind these values is patent US7294715B2, “Aporphine and oxoaporphine compounds and pharmaceutical use thereof” (Lotus Pharmaceutical Co., Ltd., priority 2003, dated 2007).
